Experiments:
Experiment in all cases: Kinase Profiler 10 μM panel
[1] = target: PI3 Kinase (p110b/p85a)(h) (Homo sapiens (Human), UniProt P42338)
Method: (§1) In vitro kinase assays were conducted using Kinase Profiler services provided by Eurofins. The experimental method was as follows: the small molecule compound to be tested (0.001-10 μM), the protein kinase to be tested were incubated with a buffer containing substrate, 10 mM magnesium acetate, and [γ-^33P-ATP], the reaction was started by adding Mg\TPmix, after incubation for a period of time at room temperature, a 3% phosphate solution was added to the buffer to stop the reaction. Subsequently, 10 μL of the reaction mixture was quantitatively pipetted onto P30 filter paper, which was washed three times with 75 mM phosphate solution and then once with methanol. The P30 filter paper was air-dried and scintillation fluid was added for scintillation counting.

ACTR2(h) = ACTR2(h) (Homo sapiens (Human), UniProt P27037)
Method: as §1

[2] = target: PI3 Kinase (p110d/p85a)(h) (Homo sapiens (Human), UniProt O00329)
Method: as §1

Arg(h) = Arg(h) (Homo sapiens (Human), UniProt P42684)
Method: as §1

Pim-3(h) = Pim-3(h) (Homo sapiens (Human), UniProt Q86V86)
Method: as §1

ATM(h) = ATM(h) (Homo sapiens (Human), UniProt Q13315)
Method: as §1

HIPK1(h) = HIPK1(h) (Homo sapiens (Human), UniProt Q86Z02)
Method: as §1

IRAK1(h) = IRAK1(h) (Homo sapiens (Human), UniProt P51617)
Method: as §1

PKD2(h) = PKD2(h) (Homo sapiens (Human), UniProt Q9BZL6)
Method: as §1

PKG1α(h) = PKG1α(h) (Homo sapiens (Human), UniProt Q13976)
Method: as §1

CaMKIδ(h) = CaMKIδ(h) (Homo sapiens (Human), UniProt Q8IU85)
Method: as §1

Ron(h) = Ron(h) (Homo sapiens (Human), UniProt Q04912)
Method: as §1

Rsk2(h) = Rsk2(h) (Homo sapiens (Human), UniProt P51812)
Method: as §1

Rsk3(h) = Rsk3(h) (Homo sapiens (Human), UniProt Q15349)
Method: as §1

ChaK1(h) = tested on: ChaK1(h)
Method: as §1

SAPK2a(T106M)(h) = SAPK2a(T106M)(h) (Homo sapiens (Human), UniProt Q16539, T106M)
Method: as §1

Met(D1246N)(h) = Met(D1246N)(h) (Homo sapiens (Human), UniProt P08581, D1228N)
Met(D1246N)(h), sequence (P08581 956-1390 D1228N limits assumed): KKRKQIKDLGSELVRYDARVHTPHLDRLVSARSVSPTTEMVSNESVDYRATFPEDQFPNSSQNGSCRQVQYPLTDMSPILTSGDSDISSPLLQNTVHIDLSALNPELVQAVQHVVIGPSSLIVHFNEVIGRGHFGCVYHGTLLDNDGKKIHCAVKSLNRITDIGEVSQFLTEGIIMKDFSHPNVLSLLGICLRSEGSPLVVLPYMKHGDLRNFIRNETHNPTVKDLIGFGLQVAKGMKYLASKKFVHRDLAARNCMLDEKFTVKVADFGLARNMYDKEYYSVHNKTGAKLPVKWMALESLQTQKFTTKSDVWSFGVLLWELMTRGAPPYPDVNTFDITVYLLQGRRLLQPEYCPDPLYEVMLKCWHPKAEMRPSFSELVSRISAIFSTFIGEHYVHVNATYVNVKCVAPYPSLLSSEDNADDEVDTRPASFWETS
Method: as §1

SGK2(h) = SGK2(h) (Homo sapiens (Human), UniProt Q9HBY8)
Method: as §1

SNRK(h) = SNRK(h) (Homo sapiens (Human), UniProt Q9NRH2)
SNRK(h), sequence (Q9NRH2 whole entry): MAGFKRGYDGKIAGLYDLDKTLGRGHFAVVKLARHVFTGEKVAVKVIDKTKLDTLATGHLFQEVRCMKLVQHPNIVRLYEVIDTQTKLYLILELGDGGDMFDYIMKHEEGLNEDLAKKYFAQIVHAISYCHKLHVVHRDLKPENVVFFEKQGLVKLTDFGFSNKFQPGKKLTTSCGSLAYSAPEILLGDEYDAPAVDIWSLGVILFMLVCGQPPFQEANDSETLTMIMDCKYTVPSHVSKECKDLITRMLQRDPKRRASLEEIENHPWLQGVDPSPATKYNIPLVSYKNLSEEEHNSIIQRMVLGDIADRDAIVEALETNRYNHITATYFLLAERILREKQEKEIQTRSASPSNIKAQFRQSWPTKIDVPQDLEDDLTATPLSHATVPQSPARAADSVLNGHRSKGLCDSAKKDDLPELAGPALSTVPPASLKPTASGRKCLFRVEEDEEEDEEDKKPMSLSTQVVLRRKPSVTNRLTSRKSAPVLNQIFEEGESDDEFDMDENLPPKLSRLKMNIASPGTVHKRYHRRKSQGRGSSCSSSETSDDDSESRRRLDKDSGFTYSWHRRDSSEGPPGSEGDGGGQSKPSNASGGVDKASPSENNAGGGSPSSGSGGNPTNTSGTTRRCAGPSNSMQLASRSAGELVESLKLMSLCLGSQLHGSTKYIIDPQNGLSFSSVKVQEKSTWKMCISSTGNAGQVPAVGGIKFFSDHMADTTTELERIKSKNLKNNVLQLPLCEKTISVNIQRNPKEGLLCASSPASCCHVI
Method: as §1

MKK4(m) = MKK4(m) (Mus musculus (Mouse), UniProt P47809)
Method: as §1

STK32B(h) = STK32B(h) (Homo sapiens (Human), UniProt Q9NY57)
Method: as §1

CRIK(h) = CRIK(h) (Homo sapiens (Human), UniProt O14578)
Method: as §1

MSK2(h) = MSK2(h) (Homo sapiens (Human), UniProt O75676)
Method: as §1

TAF1L(h) = TAF1L(h) (Homo sapiens (Human), UniProt Q8IZX4)
Method: as §1

MST3(h) = MST3(h) (Homo sapiens (Human), UniProt Q9Y6E0)
Tec(h) activated = Tec(h) activated (Homo sapiens (Human), UniProt P42680)
Method: as §1

DYRK2(h) = DYRK2(h) (Homo sapiens (Human), UniProt Q92630)
Method: as §1

TrkC(h) = TrkC(h) (Homo sapiens (Human), UniProt Q16288)
TrkC(h), sequence (Q16288 32-839): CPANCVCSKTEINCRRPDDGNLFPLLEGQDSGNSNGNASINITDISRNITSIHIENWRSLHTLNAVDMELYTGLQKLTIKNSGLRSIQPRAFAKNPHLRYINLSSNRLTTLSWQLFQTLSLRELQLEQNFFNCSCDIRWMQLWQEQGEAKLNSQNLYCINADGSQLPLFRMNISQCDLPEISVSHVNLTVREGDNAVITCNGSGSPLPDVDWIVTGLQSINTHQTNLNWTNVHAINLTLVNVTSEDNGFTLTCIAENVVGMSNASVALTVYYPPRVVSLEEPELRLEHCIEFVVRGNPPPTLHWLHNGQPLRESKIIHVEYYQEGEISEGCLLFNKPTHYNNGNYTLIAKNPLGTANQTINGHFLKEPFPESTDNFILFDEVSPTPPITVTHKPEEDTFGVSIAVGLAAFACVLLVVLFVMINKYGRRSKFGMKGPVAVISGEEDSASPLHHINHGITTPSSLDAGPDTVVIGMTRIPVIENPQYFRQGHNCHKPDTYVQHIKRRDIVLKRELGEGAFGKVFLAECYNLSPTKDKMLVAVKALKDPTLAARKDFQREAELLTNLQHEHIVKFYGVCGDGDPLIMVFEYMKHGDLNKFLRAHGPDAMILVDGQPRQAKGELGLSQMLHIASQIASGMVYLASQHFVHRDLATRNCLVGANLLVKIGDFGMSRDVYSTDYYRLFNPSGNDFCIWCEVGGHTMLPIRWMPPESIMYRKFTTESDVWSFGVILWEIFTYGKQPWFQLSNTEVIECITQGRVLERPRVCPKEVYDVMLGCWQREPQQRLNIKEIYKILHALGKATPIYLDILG
Method: as §1

NEK9(h) = NEK9(h) (Homo sapiens (Human), UniProt Q8TD19)
NEK9(h), sequence (Q8TD19 whole entry): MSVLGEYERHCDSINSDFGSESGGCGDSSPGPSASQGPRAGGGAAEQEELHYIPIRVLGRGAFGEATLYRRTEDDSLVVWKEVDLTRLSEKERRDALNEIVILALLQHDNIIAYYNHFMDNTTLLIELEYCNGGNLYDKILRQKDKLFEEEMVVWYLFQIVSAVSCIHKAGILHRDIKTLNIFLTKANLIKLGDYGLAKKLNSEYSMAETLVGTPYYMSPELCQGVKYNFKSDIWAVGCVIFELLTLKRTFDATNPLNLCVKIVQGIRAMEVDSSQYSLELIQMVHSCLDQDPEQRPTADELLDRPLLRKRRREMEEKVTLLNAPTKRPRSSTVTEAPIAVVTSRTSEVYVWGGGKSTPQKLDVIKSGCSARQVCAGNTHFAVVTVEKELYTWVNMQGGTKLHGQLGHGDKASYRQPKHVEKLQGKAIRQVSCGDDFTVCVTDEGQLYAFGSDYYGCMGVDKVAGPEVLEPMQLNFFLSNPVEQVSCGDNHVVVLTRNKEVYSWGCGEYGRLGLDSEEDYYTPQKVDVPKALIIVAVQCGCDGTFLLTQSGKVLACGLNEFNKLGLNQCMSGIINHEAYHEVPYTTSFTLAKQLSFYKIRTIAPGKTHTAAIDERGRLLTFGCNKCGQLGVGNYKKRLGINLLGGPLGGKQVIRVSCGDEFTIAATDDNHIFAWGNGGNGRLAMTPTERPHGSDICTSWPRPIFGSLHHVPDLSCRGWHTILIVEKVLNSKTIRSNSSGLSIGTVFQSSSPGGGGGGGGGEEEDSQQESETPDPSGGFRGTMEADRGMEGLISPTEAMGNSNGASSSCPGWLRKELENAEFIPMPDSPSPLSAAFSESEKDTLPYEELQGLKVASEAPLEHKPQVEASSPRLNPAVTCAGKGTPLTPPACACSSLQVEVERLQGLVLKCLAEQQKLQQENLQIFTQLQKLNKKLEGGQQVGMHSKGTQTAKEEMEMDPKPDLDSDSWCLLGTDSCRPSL
Method: as §1

TSSK2(h) = TSSK2(h) (Homo sapiens (Human), UniProt Q96PF2)
TSSK2(h), sequence (Q96PF2 whole entry): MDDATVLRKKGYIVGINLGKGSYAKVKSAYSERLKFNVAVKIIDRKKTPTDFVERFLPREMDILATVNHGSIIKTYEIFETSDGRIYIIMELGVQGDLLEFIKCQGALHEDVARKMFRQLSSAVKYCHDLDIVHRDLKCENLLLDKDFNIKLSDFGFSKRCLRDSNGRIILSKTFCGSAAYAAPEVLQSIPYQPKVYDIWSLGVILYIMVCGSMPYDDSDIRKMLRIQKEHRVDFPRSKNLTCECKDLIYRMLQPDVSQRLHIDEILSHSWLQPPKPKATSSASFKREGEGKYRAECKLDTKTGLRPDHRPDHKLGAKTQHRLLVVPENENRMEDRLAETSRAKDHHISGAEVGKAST
Method: as §1

EphA2(h) = EphA2(h) (Homo sapiens (Human), UniProt P29317)
Method: as §1

EphB1(h) = EphB1(h) (Homo sapiens (Human), UniProt P54762)
EphB1(h), sequence (P54762 18-984): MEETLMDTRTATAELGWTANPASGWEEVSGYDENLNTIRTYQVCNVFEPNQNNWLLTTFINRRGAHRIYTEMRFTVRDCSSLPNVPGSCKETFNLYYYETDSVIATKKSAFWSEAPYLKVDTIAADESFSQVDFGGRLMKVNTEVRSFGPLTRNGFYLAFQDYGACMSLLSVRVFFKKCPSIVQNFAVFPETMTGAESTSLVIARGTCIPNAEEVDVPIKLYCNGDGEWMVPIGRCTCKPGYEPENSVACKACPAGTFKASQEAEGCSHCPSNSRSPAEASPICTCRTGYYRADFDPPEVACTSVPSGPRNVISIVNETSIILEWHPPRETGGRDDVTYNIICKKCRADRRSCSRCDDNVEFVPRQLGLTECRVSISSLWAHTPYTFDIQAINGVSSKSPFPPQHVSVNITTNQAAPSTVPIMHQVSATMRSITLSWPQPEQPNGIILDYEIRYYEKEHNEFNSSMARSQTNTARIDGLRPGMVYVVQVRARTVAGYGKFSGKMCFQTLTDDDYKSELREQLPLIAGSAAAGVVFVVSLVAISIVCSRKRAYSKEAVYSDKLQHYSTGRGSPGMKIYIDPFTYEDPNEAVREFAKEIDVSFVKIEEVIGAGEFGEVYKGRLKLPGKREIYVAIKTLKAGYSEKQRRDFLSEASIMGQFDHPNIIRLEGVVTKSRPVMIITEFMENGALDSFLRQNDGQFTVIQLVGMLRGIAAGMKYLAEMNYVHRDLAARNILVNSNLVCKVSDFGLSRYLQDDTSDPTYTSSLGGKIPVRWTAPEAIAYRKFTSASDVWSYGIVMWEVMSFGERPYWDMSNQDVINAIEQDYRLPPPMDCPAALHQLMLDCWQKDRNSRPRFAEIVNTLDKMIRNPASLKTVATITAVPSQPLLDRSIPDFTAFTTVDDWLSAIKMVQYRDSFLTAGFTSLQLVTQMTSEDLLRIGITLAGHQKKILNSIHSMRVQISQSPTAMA
Method: as §1

WNK2(h) = WNK2(h) (Homo sapiens (Human), UniProt Q9Y3S1)
Method: as §1

[3] = target: PI3 Kinase (p110a(E542K)/p85a)(m) (Mus musculus (Mouse), UniProt P42337, E542K)
Method: as §1

ACTR2(h), sequence (P27037 20-513): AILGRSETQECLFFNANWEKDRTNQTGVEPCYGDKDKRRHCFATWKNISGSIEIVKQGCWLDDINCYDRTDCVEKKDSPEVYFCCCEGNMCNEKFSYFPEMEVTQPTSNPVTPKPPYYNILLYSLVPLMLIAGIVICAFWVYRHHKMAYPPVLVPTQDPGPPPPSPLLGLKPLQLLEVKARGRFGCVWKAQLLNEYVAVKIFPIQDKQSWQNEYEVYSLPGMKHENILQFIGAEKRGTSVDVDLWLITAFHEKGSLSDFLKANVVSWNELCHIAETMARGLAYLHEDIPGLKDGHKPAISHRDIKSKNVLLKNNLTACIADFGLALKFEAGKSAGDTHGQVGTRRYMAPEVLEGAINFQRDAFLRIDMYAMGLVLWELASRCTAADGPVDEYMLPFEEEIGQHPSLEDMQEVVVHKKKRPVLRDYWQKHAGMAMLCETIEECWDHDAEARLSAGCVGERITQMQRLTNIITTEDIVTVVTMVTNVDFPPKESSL

Question: How did the Inhibition ratio [1] turn out when `C[C@H](NC(=O)c1c[nH]c2ccc(-c3ccc4nc(NC(=O)C5CC5)sc4c3)cc12)c1cccc(F)c1` [Compound 34, (S)-5-(2-(cyclopropanecarboxamido)benzo[d]thiazol-6-yl)-N-(1-(3-fluorophenyl)ethyl)-1H-indole-3-carboxamide] was run?
Answer: 16%

Question: What about the Inhibition ratio (ACTR2(h)) of the same molecule?
Answer: 6%

Question: And the Inhibition ratio [2]?
Answer: 54%

Question: What about the Inhibition ratio (Arg(h)) of the same molecule?
Answer: 89%

Question: What about the Inhibition ratio (Pim-3(h)) of the same molecule?
Answer: 3%

Question: And the Inhibition ratio (ATM(h))?
Answer: 3%

Question: What about the Inhibition ratio (HIPK1(h)) of the same molecule?
Answer: 68%

Question: And the Inhibition ratio (IRAK1(h))?
Answer: 32%

Question: What about the Inhibition ratio (PKD2(h)) of the same molecule?
Answer: 46%

Question: And the Inhibition ratio (PKG1α(h))?
Answer: −12%

Question: What about the Inhibition ratio (CaMKIδ(h)) of the same molecule?
Answer: 22%

Question: And the Inhibition ratio (Ron(h))?
Answer: 44%

Question: What about the Inhibition ratio (Rsk2(h)) of the same molecule?
Answer: 1%

Question: What about the Inhibition ratio (Rsk3(h)) of the same molecule?
Answer: 49%

Question: And the Inhibition ratio (ChaK1(h))?
Answer: 5%

Question: What about the Inhibition ratio (SAPK2a(T106M)(h)) of the same molecule?
Answer: 63%

Question: And the Inhibition ratio (Met(D1246N)(h))?
Answer: 86%

Question: And the Inhibition ratio (SGK2(h))?
Answer: 2%

Question: What about the Inhibition ratio (SNRK(h)) of the same molecule?
Answer: −24%

Question: What about the Inhibition ratio (MKK4(m)) of the same molecule?
Answer: 9%

Question: And the Inhibition ratio (STK32B(h))?
Answer: −2%

Question: And the Inhibition ratio (CRIK(h))?
Answer: 5%

Question: What about the Inhibition ratio (MSK2(h)) of the same molecule?
Answer: 23%

Question: What about the Inhibition ratio (TAF1L(h)) of the same molecule?
Answer: 58%

Question: What about the Inhibition ratio (MST3(h)) of the same molecule?
Answer: 7%

Question: What about the Inhibition ratio (Tec(h) activated) of the same molecule?
Answer: 17%

Question: What about the Inhibition ratio (DYRK2(h)) of the same molecule?
Answer: 5%

Question: And the Inhibition ratio (TrkC(h))?
Answer: 104%

Question: What about the Inhibition ratio (NEK9(h)) of the same molecule?
Answer: 13%

Question: What about the Inhibition ratio (TSSK2(h)) of the same molecule?
Answer: −6%

Question: And the Inhibition ratio (EphA2(h))?
Answer: 38%

Question: What about the Inhibition ratio (EphB1(h)) of the same molecule?
Answer: 45%

Question: And the Inhibition ratio (WNK2(h))?
Answer: 38%

Question: And the Inhibition ratio [3]?
Answer: 33%

Question: With `C[C@H](NC(=O)c1cn(C)c2ccc(-c3ccn4nc(NC(=O)C5CC5)nc4c3)cc12)c1cccc(F)c1` [Compound 94, (S)-5-(2-(cyclopropanecarboxamido)-[1,2,4]triazolo[1,5-a]pyridin-7-yl)-N-(1-(3-fluorophenyl)ethyl)-1-methyl-1H-indole-3-carboxamide] as the molecule, how does the Inhibition ratio/% [1] read?
Answer: −7%

Question: What about the Inhibition ratio/% (ACTR2(h)) of the same molecule?
Answer: −3%

Question: And the Inhibition ratio/% [2]?
Answer: −1%

Question: And the Inhibition ratio/% (Arg(h))?
Answer: 42%

Question: And the Inhibition ratio/% (Pim-3(h))?
Answer: 32%

Question: What about the Inhibition ratio/% (ATM(h)) of the same molecule?
Answer: −15%

Question: And the Inhibition ratio/% (HIPK1(h))?
Answer: 48%

Question: And the Inhibition ratio/% (IRAK1(h))?
Answer: 23%

Question: And the Inhibition ratio/% (PKD2(h))?
Answer: 9%

Question: And the Inhibition ratio/% (PKG1α(h))?
Answer: 12%

Question: And the Inhibition ratio/% (CaMKIδ(h))?
Answer: 26%

Question: What about the Inhibition ratio/% (Ron(h)) of the same molecule?
Answer: 17%

Question: What about the Inhibition ratio/% (Rsk2(h)) of the same molecule?
Answer: 4%

Question: And the Inhibition ratio/% (Rsk3(h))?
Answer: 27%

Question: And the Inhibition ratio/% (ChaK1(h))?
Answer: 66%

Question: What about the Inhibition ratio/% (SAPK2a(T106M)(h)) of the same molecule?
Answer: −20%

Question: What about the Inhibition ratio/% (Met(D1246N)(h)) of the same molecule?
Answer: −11%

Question: What about the Inhibition ratio/% (SGK2(h)) of the same molecule?
Answer: −18%

Question: What about the Inhibition ratio/% (SNRK(h)) of the same molecule?
Answer: 25%

Question: What about the Inhibition ratio/% (MKK4(m)) of the same molecule?
Answer: 27%

Question: And the Inhibition ratio/% (STK32B(h))?
Answer: 27%

Question: And the Inhibition ratio/% (CRIK(h))?
Answer: −7%

Question: What about the Inhibition ratio/% (MSK2(h)) of the same molecule?
Answer: 9%

Question: What about the Inhibition ratio/% (TAF1L(h)) of the same molecule?
Answer: 48%

Question: And the Inhibition ratio/% (MST3(h))?
Answer: 33%

Question: And the Inhibition ratio/% (Tec(h) activated)?
Answer: −20%

Question: What about the Inhibition ratio/% (DYRK2(h)) of the same molecule?
Answer: 2%

Question: What about the Inhibition ratio/% (TrkC(h)) of the same molecule?
Answer: 28%

Question: What about the Inhibition ratio/% (NEK9(h)) of the same molecule?
Answer: −10%

Question: What about the Inhibition ratio/% (TSSK2(h)) of the same molecule?
Answer: 52%

Question: And the Inhibition ratio/% (EphA2(h))?
Answer: 15%

Question: And the Inhibition ratio/% (EphB1(h))?
Answer: 1%

Question: And the Inhibition ratio/% (WNK2(h))?
Answer: 6%

Question: What about the Inhibition ratio/% [3] of the same molecule?
Answer: −1%
